# Test results from EP0565377B1, “Therapeutic agents for use in the treatment of Parkinson's Disease” (Kyowa Hakko Kogyo Co., Ltd., priority 1992, dated 1993).
# Read-outs that look alike come from different tables or passages of the source.
# How the values were obtained:
# [1] = tested on: Parkinson's Disease Model in Mouse; test: Effect on locomotor activity of Parkinson's disease model in mouse (MPTP-treated mice, Automex-II horizontal activity); type: in vivo, male C57BL/6 mice
# Procedure: 1-Methyl-4-phenyl-1,2,3,6-tetrahydropyridine (MPTP) causes symptoms of Parkinson's disease in humans [Science, 219, 979 (1983)]. It is reported that an experimental Parkinson's disease model was obtained by administering MPTP to mice [Science, 224, 1451 (1984)]. If a compound is effective on the experimental Parkinson's disease model in mouse, the compound can be expected to have a therapeutic effect on Parkinson's disease.
# The experiment was performed by using several groups of 7-weeks-old male C57BL/6 mice (weighing 20 to 21 g, Japan SLC), each group consisting of 8 mice. MPTP (Aldrich Chemical Co., Inc.) dissolved in a physiological saline solution (Otsuka Pharmaceutical Co., Ltd.) was intraperitoneally administered to each mouse once a day for five consecutive days at a dose of 30 mg/kg. A test compound was suspended in injectable distilled water (Otsuka Phamaceutical Co., Ltd.) containing Tween 80 [polyoxyethylene (20) sorbitan monooleate]. L-DOPA (Kyowa Hakko Kogyo Co., Ltd.) was suspended in 0.3% CMC (sodium carboxylmethylcellulose). Thirty minutes after the final MPTP administration, the test compound suspensions and the control suspension [injectable distilled water (Otsuka Pharmaceutical Co., Ltd.) containing Tween 80] containing no test compound were orally administered to separate groups of the mice (0.1 ml per 10 g of body weight). The amount of active movements (horizontal activity) of each mouse was measured by using Automex-II (Columbus Instruments International Corp.) for the period of 30 minutes starting 30 minutes after the administration of the test compound. The effect of the compounds was evaluated by comparing the average counts of the active movements of the test compound-administered groups with those of the control groups. A significant difference test was performed by using Student's t-test.
# [2] = tested on: Haloperidol-Induced Catalepsy; test: Effect on haloperidol-induced catalepsy; type: in vivo, male ddY mice; conditions: test compound 10 mg/kg orally; for inhibition in vivo at 10 mg/kg: Mus musculus, po, 1 h, rate of decrease in total score based on control group, read-out: Remission Rate (%); for Number of the Animals Showing Remission: of 5 mice, catalepsy score not more than 4 points; for Total Score: total catalepsy score of 5 mice (25 points at the full)
# Procedure: The experiment was performed by using several groups of 5-weeks-old male ddY mice (weighing 22 to 24 g, Japan SLC), each group consisting of 5 mice. Haloperidol (Janssen Pharmaceutica) suspended in 0.3% CMC was intraperitoneally administered to each mouse at a dose of 1.0 mg/kg. Test compounds were suspended in 0.3% CMC or in injectable distilled water (Otsuka Pharmaceutical Co., Ltd.) containing Tween 80. L-DOPA (Kyowa Hakko Kogyo Co., Ltd.) and benserazide hydrochloride (Kyowa Hakko Kogyo Co., Ltd.) were suspended in 0.3% CMC. One hour after the haloperidol administration, the test compound suspensions and the control suspension [0.3% CMC or injectable distilled water (Otsuka Pharmaceutical Co., Ltd.) containing Tween 80] containing no test compound were orally administered to separate groups of the mice (0.1 ml per 10 g of body weight). One hour after the administration of the test compound, the forelimbs of each mouse and subsequently the hindlimbs of the same mouse were placed on a 4.5 cm-high, 1.0 cm-wide bar and catalepsy was estimated. All of the test compounds were orally administered at a dose of 10 mg/kg, and L-DOPA (100 mg/kg) and benserazide (25 mg/kg) were intraperitoneally administered together as a control experiment. The catalepsy score and the standard of judgment are shown below.
# The effect of the compounds was evaluated by the total of the catalepsy scores of five mice in each group (25 points at the full). The groups wherein the total score was not more than 20 points were estimated to be effective. The number of the animals showing remission against catalepsy is the number of the mice for which the catalepsy score was not more than 4 points.
# [3] = tested on: dd-strain male mice; test: Acute toxicity test (minimum lethal dose, oral); type: in vivo; conditions: oral administration, mortality seven days after administration, three mice per group
# Procedure: Test compounds were orally administered to groups of dd-strain male mice weighing 20±1 g, each group consisting of three mice. Seven days after the administration, minimum lethal dose (MLD) of each compound was determined by observing the mortality.
# [4] = Table 3-5, test compound 40 mg/kg orally, normal control 2252 ±210.1, MPTP control 18 ± 8.4
# [5] = Table 4-2, 0.3% Tween 80 control 25
Compound,"Amount of Active Movements (average count ± S.E.M) ([1]; Table 3-1, test compound 10 mg/kg orally, 30 min count starting 30 min after dosing, normal control 1875 ± 77.7, MPTP control 207 ± 85.5) [count]",inhibition in vivo at 10 mg/kg ([2]; Table 4-1) [%],Number of the Animals Showing Remission ([2]; Table 4-1),"Total Score ([2]; Table 4-1, 0.3% CMC control 25) [points]",MLD [3] [mg/kg],"Amount of Active Movements (average count ± S.E.M) [1, 4] [count]","Amount of Active Movements (average count ± S.E.M) ([1]; Table 3-2, test compound 40 mg/kg orally, normal control 2185 ±156.2, MPTP control 38 ± 24.2) [count]",inhibition in vivo at 10 mg/kg ([2]; Table 4-2) [%],Number of the Animals Showing Remission ([2]; Table 4-2),"Total Score [2, 5] [points]"
"CCCn1c(=O)c2c(nc(/C=C/c3ccc(OC)c(OC)c3)n2C)n(CCC)c1=O [Compound 1, (E)-8-(3,4-dimethoxystyryl)-7-methyl-1,3-dipropylxanthine]",628 ±174.5,48,5,13,> 300,,,,,
"CCCn1c(=O)c2c(nc(/C=C/c3ccc(OC)c(C)c3C)n2C)n(CCC)c1=O [Compound 13, (E)-8-(4-methoxy-2,3-dimethylstyryl)-7-methyl-1,3-dipropylxanthine]",,80,5,5,> 300,,,,,
"CCCn1c(=O)c2c(nc(/C=C/c3cc(OC)c(OC)c(OC)c3)n2C)n(CCC)c1=O [Compound 5, (E)-7-methyl-1,3-dipropyl-8-(3,4,5-trimethoxystyryl)xanthine]",,28,4,18,> 300,,,,,
"CCCn1c(=O)c2c(nc(/C=C/c3ccc(OC)c(C)c3OC)n2C)n(CCC)c1=O [Compound 15, (E)-8-(2,4-dimethoxy-3-methylstyryl)-7-methyl-1,3-dipropylxanthine]",,24,4,19,> 300,,,,,
"CCCn1c(=O)c2c(nc(/C=C/c3cc(OC)c(OC)cc3OC)n2C)n(CCC)c1=O [Compound 23, (E)-7-methyl-1,3-dipropyl-8-(2,4,5-trimethoxystyryl)xanthine]",,28,4,18,> 300,,,,,
"COc1cc(/C=C/c2nc3c([nH]2)c(=O)n(C)c(=O)n3C)cc(OC)c1OC [Compound 10, (E)-8-(3,4,5-trimethoxystyryl)theophylline]",,,,,> 300,32 ± 21.2,,,,
"CCCn1c(=O)c2c(nc(/C=C/c3ccccc3)n2C)n(CCC)c1=O [Compound 3, (E) -7-methyl-1,3-dipropyl-8-styrylxanthine]",,20,4,20,> 300,,228 ± 82.6,,,
"CCCn1c(=O)c2[nH]c(/C=C/c3ccc(OC)cc3OC)nc2n(CCC)c1=O [Compound 24, (E)-8-(2,4-dimethoxystyryl)-1,3-dipropylxanthine]",,24,4,19,> 100,,,,,
"CCCn1c(=O)c2[nH]c(/C=C/c3ccc4c(c3)OCCO4)nc2n(CCC)c1=O [Compound 16, (E)-8-[2-(1,4-benzodioxan-6-yl)vinyl]-1,3-dipropylxanthine]",,20,4,20,> 300,,,,,
"CCCn1c(=O)c2c(nc(/C=C/c3ccc4c(c3)OCO4)n2C)n(CCC)c1=O [Compound 19, (E)-7-methyl-8-(3,4-methylenedioxystyryl)-1,3-dipropylxanthine]",,24,3,19,> 300,,,,,
"CCCCn1c(=O)c2c(nc(/C=C/c3cc(OC)c(OC)c(OC)c3)n2C)n(CCCC)c1=O [Compound 8, (E)-1,3-dibutyl-7-methyl-8-(3,4,5-trimethoxystyryl)xanthine]",,,,,> 300,43 ± 28.3,,,,
"CCCn1c(=O)c2c(nc(/C=C/c3ccc(OC)cc3)n2C)n(CCC)c1=O [Compound 6, (E)-8-(4-methoxystyryl)-7-methyl-1,3-dipropylxanthine]",,24,3,19,> 300,,,,,
"CCCn1c(=O)c2c(nc(/C=C/c3ccc(OC)cc3OC)n2C)n(CCC)c1=O [Compound 25, (E)-8-(2,4-dimethoxystyryl)-7-methyl-1,3-dipropylxanthine]",,,,,> 300,,,52,5,12
"CCCn1c(=O)c2[nH]c(/C=C/c3ccc4c(c3)OCO4)nc2n(CCC)c1=O [Compound 18, (E)-8-(3,4-methylenedioxystyryl)-1,3-dipropylxanthine]",,20,4,20,> 300,,,,,
"CCCn1c(=O)c2[nH]c(/C=C/c3cc(Br)c(OC)c(OC)c3)nc2n(CCC)c1=O [Compound 59, (E)-8-(3-bromo-4,5-dimethoxystyryl)-1,3-dipropylxanthine]",,,,,> 300,,,24,5,19
"C=CCn1c(=O)c2c(nc(/C=C/c3cc(OC)c(OC)c(OC)c3)n2C)n(CC=C)c1=O [Compound 7, (E)-1,3-diallyl-7-methyl-8-(3,4,5-trimethoxystyryl)xanthine]",,48,4,13,> 300,,,,,
"CCCn1c(=O)c2c(nc(/C=C/c3ccc(OCC)cc3)n2C)n(CCC)c1=O [Compound 48, (E)-8-(4-ethoxystyryl)-7-methyl-1,3-dipropylxanthine]",,,,,> 100,,,76,5,6
"CCCn1c(=O)c2c(nc(/C=C/c3ccc(C)c(C)c3)n2C)n(CCC)c1=O [Compound 31, (E)-8-(3,4-dimethylstyryl)-7-methyl-1,3-dipropylxanthine]",,,,,> 100,,,28,4,18
"CCCn1c(=O)c2c(nc(/C=C/c3ccc(O)c(O)c3)n2C)n(CCC)c1=O [Compound 53, (E)-8-(3,4-dihydroxystyryl)-7-methyl-1,3-dipropylxanthine]",,,,,> 100,,,20,4,20
"CCCn1c(=O)c2nc(/C=C/c3cc(OC)c(OC)c(OC)c3)[nH]c2n(CCC)c1=O [Compound 9, (E)-1,3-dipropyl-8-(3,4,5-trimethoxystyryl) xanthine]",,,,,> 300,41 ± 18.0,,,,
"CCCOc1ccc(/C=C/c2nc3c(c(=O)n(CCC)c(=O)n3CCC)n2C)cc1 [Compound 50, (E)-7-methyl-8-(4-propoxystyryl)-1,3-dipropylxanthine]",,,,,> 100,,,24,3,19
